Test [1] deals with 51Cr-labeled T lymphocyte migration into the spleen. The experiment in a line: Inhibition of lymphocyte migration into lymphoid tissue (spleen) in vivo. Also on record: species or system Balb/c mice. As to conditions: 5 mg per mouse iv with labeled cells; spleens removed 1.5 hours after injection; vs negative controls. Here is the method:
Lymphocytes were obtained from spleens of 6-8 week old female specific pathogen-free Balb/c mice (19-21 g). Single cell suspensions prepared by conventional means (pushing through a stainless steel screen). Red blood cells were lysed by treating with a solution of bicarbonate buffered ammonium chloride-EDTA (pH 7.3) and the preparation strained through a Falcon 2350 cell strainer. All cell preparative steps were performed on ice. Cell were suspended in a conventional lymphocyte culture medium (DMEM plus glucose, folic acid, L-asparagine, sodium bicarbonate, L-glutamine, sodium pyruvate, HEPES, 2-mercaptoethanol, penicillin, streptomycin, neomycin, and 2% FCS).
B lymphocytes were depleted by suspending the cells in purified rat anti-mouse CD45/B220 antibody (RA3-6B2 clone; PharMingen, USA) at a concentration of 4×10^7 cells/ml and incubated on ice for 20 minutes. An equal volume of culture medium (as above) was added and the cells centrifuged (200×g) and resuspended at a concentration of 10^7 cells/ml in BioMag goat ant-rat IgG (H&L) (“GARIG”) conjugated to magnetic beads (Bio Mag; Perseptive Diagnostics, Polysciences, Inc., USA). Following a 20 minute incubation on ice, with agitation every 5 minutes, cells binding to the GARIG/anti-CD45/B220 antibody complex were removed using magnetic separation (Dynal MPC-6, Dynal, USA). This procedure was repeated 4 times, resulting in a cell population containing approximately 80-90% T lymphocytes (determined by FACS analysis).
The cells were then washed in Hanks balanced salt solution (HBSS), resuspended in 5 ml of HBSS, and radiolabeled with ^51Cr for 30 minutes at 37° C. (as described above). The labeled cells were washed in PBS, centrifuged (200×g), and a portion were resuspended at a concentration of 3×10^7 cells/ml in either PBS (negative control) or PBS containing phenyl mannoside 6-phosphate (25 mg/ml in PBS; positive control) or PBS containing the test compound (25 mg/ml), and stored on ice. Cell viability was confirmed throughout the procedures by trypan blue exclusion. Balb/c mice were injected intravenously (iv) into the lateral tail vein with 0.2 ml containing 6×10^6 labeled lymphocytes and 0.2 ml of either PBS (negative control), 5 mg positive control or 5 mg test compound. All groups of mice were weight matched (±0.5 g).
Spleens from recipient mice were removed 1.5 hours after injection, and the cell-associated radioactivity was determined using a gamma counter (as above). Results of inhibition of lymphocyte migration into the spleen were expressed as a percentage reduction in the CPM of the spleens from treated animals compared with negative controls.
The phosphono-mannoside compounds of the present invention and their relative inhibition of lymphocyte migration in vivo (compared to negative controls) are presented in Table 2.

For test [2], the system named is passively transferred EAE. The experiment in a line: Passively transferred experimental autoimmune encephalomyelitis (EAE). It is filed as in vivo, Lewis rats. As to conditions: for Clinical Scores (individual rats): 45 mg/kg/day by mini-osmotic pump; for Clinical Scores (individual rats) / Mean Score: scale 0 to 5. The protocol:
To study the effect of the present agents in vivo on a disease that includes in its pathogenesis the migration of T lymphocytes into a specific tissue, the brain, experiments were performed in the Lewis rat model of passively transferred EAE. MBP-specific T lymphocyte cell lines were generated from the draining LNs of Lewis rats that had been immunized with MBP in CFA essentially according to the method of Ben-Nun et al., 1981, supra. Donor T lymphocytes were generated from female 10 to 12 week old Lewis rats weighing 150 to 200 g. These rats had been injected intradermally in each hind footpad with an emulsion of guinea pig MBP (gpMBP) prepared according to Deibler, G E et al., […]. Biochem. 2:139-165 (1972), incorporated herein by reference) in CFA ([…]). The adjuvant emulsion was prepared by emulsifying equal volumes of a mixture of light mineral oil (Sigma) and a solution of the gpMBP in normal saline (0.5 mg/ml) and Mycobacterium butyricum (4 mg/ml; Difco). Thus, each rat received was 50 μg of MBP and 400 μg of M. butyricum. Approximately 11 days following injection the rats were euthanized and the draining LNs (popliteal and inguinal) were removed aseptically by blunt dissection and placed into lymphocyte culture medium as described above. A single cell suspension was prepared from the LNs as described above for spleen. The cells were washed twice in culture medium and any red blood cells were lysed with ammonium chloride as above. These cells, at concentration of 5×10^6/ml were cultured for 72 hours in the presence of MBP (0.06 mg/ml) at 37° C. in a humidified atmosphere containing 7.5% carbon dioxide. The cells were collected and the lymphoblasts were isolated by centrifugation on a Ficoll (Pharmacia, Uppsala, Sweden) gradient in an identical manner to that described by Ben Nun et al. supra. The fraction containing 90% lymphoblasts was cultured further in complete DMEM to which was added (15% v/v) a culture supernatant containing a mixture of growth factors (supernatant of concanavalin A-stimulated lymphocytes), 10% fetal calf serum, nonessential amino acids (Bio-Lab, Jerusalem, Israel). No antigen (MBP) was added. The cells were originally plated in 100 mm petri dishes at a concentration of 2×10^5 cells/mil and replated every 3 or 4 days. Prior to transfer into Lewis rat recipients, the cells were restimulated with antigen, MBP (0.01 mg/ml), and irradiated syngeneic thymocytes, as antigen-presenting cells, for 4 days. These cultured, stimulated T lymphocytes were highly encephalitogenic: as few as 5×10^5 cells could induced disease in naïve Lewis rats. In a typical experiment, a group of 5 female Lewis rats, approximately 9 weeks old, weighing 110±15 grams was anesthetized with diethyl ether and implanted with mini-osmotic pumps (Alzet 2002, Alza Corp., Palo Alto Calif., USA) containing 1-(2,4,-diimethyl phenyl)-6-phosphono-mannoside dissolved in normal saline at a concentration that delivered the drug at a rate of 45 mg/kg/day. A second group of 5 control animals were implanted under anesthesia with a similar pump containing normal saline. Just prior to recovering from the anesthetic, each animal received 5×10^5 cells of the above encephalitogenic T cell line iv in 0.2 ml of normal saline. […] The severity of EAE for each group of rats was calculated as a Disease Index (DI) which is (for those animals developing disease): [formula] This calculation allows a more complete assessment of the disease by incorporating both speed of onset and clinical severity and duration of the disease. […] In an identically designed experiment, rats were sacrificed on day 6 after T lymphocyte transfer and their spinal cords were harvested for histological assessment. Rats were deeply anesthetized (Nembutal) and perfused with 30 ml saline followed by 60 ml 10% neutral buffered formalin. Spinal cords were removed, fixed for 7 days in 10% formalin and embedded for sectioning. […]

Where [3] appears, read: 45 mg/kg/day, vs saline controls.

Molecules are shown by their SMILES. Where “and” joins values, the source holds several entries; their conditions need not be identical. Identical values can stand only once.

`Cc1ccc(O[C@H]2O[C@H](CCP(=O)(O)O)[C@@H](O)[C@H](O)[C@@H]2O)c(C)c1`: the “% Inhibition of lymphocyte migration into spleens” value in test [1] came to 82.4%. For the same compound, the “animals that developed disease” value in test [2] (45 mg/kg/day, control 5/5) was 3/5. Also, the “DI = Group Disease Index” value in test [2] (45 mg/kg/day, control group DI 160) came out at 40. Further, the “duration of maximum clinical scores” value in test [2] (45 mg/kg/day, controls two consecutive days) is “none of the 3 drug treated animals that developed symptoms had maximum clinical scores for more than one day”. Besides, the disease onset entry in test [2] (setting [3]) is “disease onset was delayed”. Moreover, in test [2] (setting [3]), the disease severity result is recorded as “disease severity was lower than that observed in the controls”. The “Clinical Scores (individual rats)” value in test [2] (Day 4) is 0; in test [2] (Day 5, listed as 1-(2,4,-dimethyl phenyl)-6-phosphono-mannoside, 45 mg/kg/day), 1 (3×) and 0 (2×); in test [2] (Day 6, listed as 1-(2,4,-dimethyl phenyl)-6-phosphono-mannoside, 45 mg/kg/day), 2 (2×) and 0 (2×) and 1; in test [2] (Day 7, listed as 1-(2,4,-dimethyl phenyl)-6-phosphono-mannoside, 45 mg/kg/day), 0 (3×) and 1 (2×). Besides, the “Mean Score” value in test [2] (Day 4, 45 mg/kg/day) was determined as 0; in test [2] (Day 5, 45 mg/kg/day) it was 0.6; in test [2] (Day 6, 45 mg/kg/day) it was 1; in test [2] (Day 7, 45 mg/kg/day), 0.4. Moreover, the “lesions/section in the most affected animal” value in test [2] (day 6 after T lymphocyte transfer, histology) is on record as “no more than 8 lesions/section”. In test [2] (day 6 after T lymphocyte transfer, histology, control approximately 15 lesions/section), the “average number of spinal cord lesions” value was 3.5 lesions.

For the origin of these results see patent publication US7648966B2, “Mannose-6-phosphonate compounds for the treatment of inflammatory diseases” (Pharmaxis Pty Limited, priority 2003, dated 2010).
